Laboratory results: US11693006B2, “Blood profiling with protease inhibitors” (Sangui Bio Pty. Ltd, priority 2016, dated 2023)
Numbered stars: 1 amine (or outer) side, 2 acyl side, 3 side chain; on linkers, the order of the positions; unused ones are H or OH. Square brackets hold non-standard residues; d marks the D form. Peptide text beside a SMILES is read from it. * marks the point of attachment. ξ: configuration not given here. Sta = CC(C)C[C@H](N)[C@@H](O)CC(=O)O; Isovaleryl = CC(C)CC(=O)*; ξR = N=C(N)NCCCC(N)C(=O)O; ξF = NC(Cc1ccccc1)C(=O)O; CO = O=C([*:1])[*:2]

How the values were obtained:
Type in all cases: cell-based, human
red blood cells = assay: Protein profile in red blood cell lysates using cationic salt (21-plex); conditions: PBS containing 100 mM LiCl vs PBS
Procedure: Red blood cells were isolated using dextran sedimentation as follows. Whole blood was centrifuged (1500 g, 10 minutes) and the upper plasma layer was discarded. The remaining cell pellet was resuspended in an equal volume of sodium chloride (0.15 M). Dextran (6% w/v in 0.15 M sodium chloride) was then added to this cellular suspension at a 1:4 ratio (dextran:cell suspension). This solution was left at room temperature for 30 minutes for red blood cell sedimentation to the bottom of the tube. After this time the upper white blood cell rich layer and the lower red blood cell fraction were separated and the white blood cells discarded. The lower red blood cell fraction was washed twice in phosphate buffered saline (PBS, 500 g, 5 minutes). The supernatant was discarded, and the red blood cell pellet resuspended in either PBS or PBS containing 100 mM LiCl.
The red blood cells were subjected to 3 freeze-thaw cycles to ensure complete cellular lysis. […] The red blood cell lysates were analysed on a 21-plex human cytokine panel that assays for IL-1α, IL-2Ra, IL-3, IL-12, IL-16, IL-18, CTACK, GRO-α, HGF, IFN-α2, LIF, MCP-3, M-CSF, MIF, MIG, β-NGF, SCF, SCGF-β, SDF-1α, TNF-β, TRAIL (Bio-Plex Pro 27-plex and 21-plex, Bio-Rad). […] The calibration curve for each cytokine was analysed with 5 parametric logistic curve regression using BioPlex manager software (ver. 5.0, Bio-Rad, USA).

[1] = system: red blood cells from healthy individuals; assay: Cytokine release from red blood cells of healthy individuals incubated with protease inhibitors (27-plex and 21-plex Bio-Plex); conditions: for effect on cytokine release from healthy red blood cells individually: individual inhibitors at Table 5 concentrations
Procedure: Blood samples from healthy volunteers were used to evaluate the effect of specific protease inhibitors on proteins from red blood cells. Whole blood was collected from healthy volunteers by venepuncture (n≥3) directly into EDTA vacutainers (k2EDTA vacutainers, BD Biosciences). The fractions of blood were collected and processed at room temperature within 4 hours of collection. For multiplex analysis (BioPlex analysis) the samples were stored at −80° C.
The red blood cells were isolated using dextran sedimentation as follows. Whole blood was centrifuged (1500 g, 10 minutes) and the upper plasma layer was discarded. The remaining cell pellet was resuspended in an equal volume of sodium chloride (0.15 M). Dextran (6% w/v in 0.15 M sodium chloride) was then added to this cellular suspension at a 1:4 ratio (dextran:cell suspension). The solution was left at room temperature for 30 minutes for red blood cell sedimentation to the bottom of the tube. The upper white blood cell rich layer was then discarded and the lower red blood cell fraction isolated. The red blood cell fraction was washed once in phosphate buffered saline (PBS, 500 g, 5 minutes) and the remaining red blood cell pellet was counted (Coulter Act Diff, Beckman Coulter). The red blood cells were then diluted to 400 million cells/mL in PBS and were incubated at 37° C. and 5% CO2 for 24 hours. Some samples were also incubated with the protease inhibitors indicated in Table 5 during the PBS incubation.
(§1) After incubation, the resulting conditioned PBS was isolated by centrifugation (500 g, 5 minutes) and then stored at −80° C. The conditioned PBS samples were then analysed on the multiplex cytokine assays. Two multiplex assays were utilised. The first was a 27-plex human cytokine panel that assays for FGF basic, Eotaxin, G-CSF, GM-CSF, IFN-γ, IL-1β, IL-1ra, IL-2, IL-4, IL-5, IL-6, IL-7, IL-8, IL-9, IL-10, IL-12(p70), IL-13, IL-15, IL-17, IP-10, MCP-1, MIP-1α, MIP-1β, PDGF-BB, RANTES, TNF-α, and VEGF, and the second was a 21-plex human cytokine panel that assays for IL-1α, IL-2Ra, IL-3, IL-12, IL-16, IL-18, CTACK, GRO-α, HGF, IFN-α2, LIF, MCP-3, M-CSF, MIF, MIG, β-NGF, SCF, SCGF-β, SDF-1α, TNF-β, TRAIL (Bio-Plex Pro 27-plex and 21-plex, Bio-Rad). The assays were performed according to manufacturer's instructions using an automated magnetic wash station (BioPlex Pro II, Bio-Rad) for the washing steps. The assays were run on the Luminex® 200™ system (Bio-Rad) and fluorescent values were collected. The calibration curve for each cytokine was analysed with 5 parametric logistic curve regression using BioPlex manager software (ver. 5.0, Bio-Rad, USA).
The fold change was determined for proteins in red blood cell-conditioned PBS at 400 million cells/mL following incubation at 37° C. for 24 hours with protease inhibitor cocktail or individual protease inhibitors from healthy participants. […] Significant differences (p<0.05) were determined using Student T-tests.
To determine the effect of a combination of protease inhibitors on the release of proteins from red blood cells, a protein profile was obtained from healthy red blood cells incubated with protease inhibitor cocktails. […] Healthy red blood cells were incubated with A8127s and the cOmplete protease inhibitor cocktail (Roche).

[2] = system: red blood cells from individuals having colorectal cancer; assay: Cytokine release from red blood cells of individuals having colorectal cancer incubated with protease inhibitors (27-plex); conditions: colorectal cancer red blood cells vs no protease inhibitors
Procedure: Whole blood was collected from volunteers with by venepuncture directly into EDTA vacutainers (k2EDTA vacutainers, BD Biosciences). The fractions of blood were collected and processed at room temperature within 4 hours of collection. For multiplex analysis (BioPlex analysis) the samples were stored at −80° C. prior to analysis. The red blood cells were isolated using dextran sedimentation as follows. Whole blood was centrifuged (1500 g, 10 minutes) and the upper plasma layer was discarded. The remaining cell pellet was resuspended in an equal volume of sodium chloride (0.15 M). Dextran (6% w/v in 0.15 M sodium chloride) was then added to this cellular suspension at a 1:4 ratio (dextran:cell suspension). The solution was left at room temperature for 30 minutes for red blood cell sedimentation to the bottom of the tube. The upper white blood cell rich layer was discarded and the lower red blood cell fraction was isolated. The red blood cell fraction was washed once in phosphate buffered saline (PBS, 500 g, 5 minutes) and the remaining red blood cell pellet was counted (Coulter Act Diff, Beckman Coulter). The red blood cells were then diluted to 400 million cells/mL in PBS and incubated at 37° C. and 5% CO2 for 24 hours. Some samples were also incubated with the individual protease inhibitors in Table 5, a commercial protease inhibitor cocktail (cOmplete, Roche), or the A8127s protease inhibitor cocktail during the PBS incubation. The A8127s protease inhibitor cocktail comprised antipain-dihydrochloride (50 μg/mL); bestatin (40 μg/mL); E-64 (10 μg/mL); leupeptin (5 μg/mL); pepstatin (0.7 μg/mL); phosphoramidon (330 μg/mL); Pefabloc SC (1 mg/mL); EDTA-Na2 (0.5 mg/mL); and aprotinin (2 μg/mL).
as §1, with “minutes). The samples were” for “minutes) and then”, “on” for “on the multiplex cytokine assays. Two multiplex assays were utilised. The first was”, “VEGF” for “VEGF, and the second was a 21-plex human cytokine panel that assays for IL-1α, IL-2Ra, IL-3, IL-12, IL-16, IL-18, CTACK, GRO-α, HGF, IFN-α2, LIF, MCP-3, M-CSF, MIF, MIG, β-NGF, SCF, SCGF-β, SDF-1α, TNF-β, TRAIL”, “27-plex,” for “27-plex and 21-plex,”, “assay was” for “assays were”
Significant differences (p<0.05) were determined using Student T-tests. […]

[3] = healthy red blood cells, in words

In the case of `[Cl-].[Li+]` [lithium chloride], the “level of several of the proteins in the assay (21-plex human cytokine panel)” value (red blood cells) is reported as “increased and/or enhanced”.
In the case of `CC(C)C[C@H](NP(=O)(O)O[C@@H]1O[C@@H](C)[C@H](O)[C@@H](O)[C@H]1O)C(=O)N[C@@H](Cc1c[nH]c2ccccc12)C(=O)O` [Sample ID 8, Phosphoramidon], the “effect on cytokine release from healthy red blood cells individually” value (shortened to “effect on cytokine release”) [1] is reported as “significant effect”.
In the case of Aprotinin [Sample ID 11], the “effect on cytokine release” value [1] is reported as “significant effect”.
In the case of `CC(C)CC(=O)N[C@H](C(=O)N[C@H](C(=O)N[C@@H](CC(C)C)[C@@H](O)CC(=O)N[C@@H](C)C(=O)N[C@@H](CC(C)C)[C@@H](O)CC(=O)O)C(C)C)C(C)C` [Sample ID 7, Pepstatin] (Isovaleryl-VV[Sta]A[Sta]-OH), the “concentration of HGF following red blood cell incubation” value [1, 3] is reported as “significantly decreased”, the “effect on concentration of IFN-a2, MIF, and HGF” value [1, 3] is reported as “opposite effect of bestatin” and the “effect on cytokine release” value [1] is reported as “significant effect”.
In the case of `CC(C)C[C@H](NC(=O)[C@H]1O[C@@H]1C(=O)O)C(=O)NCCCCN=C(N)N` [Sample ID 5, E-64], the “effect on cytokine release” value [1] is reported as “significant effect”.
In the case of `CC(C)C[C@H](NC(=O)[C@@H](O)[C@H](N)Cc1ccccc1)C(=O)O` [Sample ID 4, Bestatin], the “concentration of HGF following red blood cell incubation” value [1, 3] is reported as “dramatically increased”, the “concentration of released IFN-a2, IL-18, MIF, TRAIL, HGF, and IL12-p40” value [1, 3] is reported as “alters” and the “effect on cytokine release” value [1] is reported as “significant effect”.
With `CC(C)[C@H](NC(=O)[C@H](CCCN=C(N)N)NC(=O)NC(Cc1ccccc1)C(=O)O)C(=O)NC(C=O)CCCN=C(N)N.Cl.Cl` (stereo partly drawn) [Sample ID 3, Antipain-dihydrochloride] ({ξF-CO}-Arg-Val-[ξR]-aldehyde) the “effect on cytokine release” value [1] was “significant effect”, the “concentration of IL-1β, IL-8, TNF-α, MIP-1α, G-CSF and IL-6” value [2] was “decreasing” and the “concentration of released IFN-γ, IL-12(p70), IL-15, IL-17, IL-13, IL-7, IP-10, PDGF-bb and IL-2” value [2] was “increased”.
With `O=C([O-])CN(CCN(CC(=O)[O-])CC(=O)O)CC(=O)O.[Na+].[Na+]` [Sample ID 10, EDTA-Na2] the “effect on cytokine release” value [1] was “significant effect”.
`Cl.NCCc1ccc(S(=O)(=O)F)cc1` [Sample ID 9, Pefabloc SC] was tested, and the “effect on cytokine release” value [1] was “significant effect”, the “concentration of IL-1β, IL-8, IL-9, TNF-α, IL-1ra, MCP-1, MIP-1α, G-CSF and IL-6” value [2] was “decreasing” and the “released concentration of IL-13 and IL-7” value [2] was “increased”.
For `CC(=O)N[C@@H](CC(C)C)C(=O)N[C@@H](CC(C)C)C(=O)N[C@H](C=O)CCCNC(=N)N` [Sample ID 6, Leupeptin], the “effect on cytokine release” value [1] was “significant effect”.
